Measurements: patent US20080274208A1, “Water treatment containing DBNPA for use in sanitizing recreational water” (priority 2007, published 2008)

What was measured:
[1] = tested on: eight species of bacteria and four species of fungi typically found in swimming pool water; assay: Model swimming pool recirculating sand filter system: water clarity (turbidity) under daily microbial challenge; type: cell-based; conditions: Table 1; synthetic pool water 80-90° F, daily inoculation and bather load; DBNPA 2 ppm daily; H2O2 27.5 ppm start, 7 ppm weekly; potassium monopersulfate 12 ppm initial and weekly; PHMB 6 ppm; 88 day test
Protocol: The purpose of this experiment is to evaluate the robustness or the ability of single or combinations of biocides (plus additionally any other permutations of oxidizers and/or adjuvants) to prevent inoculated microorganisms from establishing colonies in the water and sand filter media, thus preventing bio-fouling of the system.
800 ml of synthetic swimming pool water (water containing calcium chloride dihydrate and sodium hydrogen carbonate solution at neutral pH) was pumped through a body of swimming pool filter sand by means of a peristaltic pump. The water temperature of each system was maintained in the range of 80-90° F. The biocide 2,2-dibromo-3-nitrilopropionamide (DBNPA) was added daily at a concentration of 2 ppm. When required, oxidizer hydrogen peroxide was added at a concentration of 27.5 ppm at the start of experiment, and 7 ppm weekly thereafter, and the loss of hydrogen peroxide in each system is monitored by calorimetric assay. […]
Model water turbidity was measured on a daily basis) using a Hach 2100P turbidimeter to measure water sample nephelometric turbidity units (NTUs). […]
The performance of the candidate treatment regimens was determined by the number of days the water clarity was maintained below 1.0 NTU (Nephelometric Turbidity Units). […]

[2] = tested on: four species of fungi typically found in swimming pool water; assay: Model swimming pool system: viable fungi by agar plate counts (Sabaroud-Dextrose agar); type: cell-based, Paecilomyces and Trichoderma; conditions: Table 1; upon exceeding turbidity threshold (or at test end); DBNPA 2 ppm daily with/without oxidizer; PHMB 6 ppm
Protocol: (§1) The synthetic swimming pool water samples dosed with combinations of DBNPA, hydrogen peroxide, potassium monopersulfate and/or DDAC were compared to the performance of the commercially available Baquacil® swimming pool chemical treatment system (available commercially from Arch Chemicals, Inc., Norwalk, Conn.). […] PHMB), by addition of daily or weekly doses of the biocide. Hydrogen peroxide is added monthly at a concentration of 27.5 ppm. The samples were challenged on a daily basis with eight species of bacteria and four species of fungi typically found in swimming pool water. These microorganisms include species of the fungi Paecilomyces and Trichoderma, and species of the bacteria Alcaligenes, Chryseobacterium and Sphingomonas. Each inoculation represents a total addition of 0.8×10^6 microorganisms per model apparatus. In addition, 5 ml of synthetic bather load is added to the system on a daily basis, as a nutrient source for the microorganisms present in the system. The bather load consists of carbon, nitrogen and macro/micro nutrient sources such as urea, albumin, creatinine, lactic acid, uric acid, glucuronic acid, sodium chloride, sodium sulfate, ammonium chloride, sodium bicarbonate, potassium phosphate potassium sulfate. The total number of viable bacteria and fungi present in each sample was determined weekly by conducting agar plate counts. […]

[3] = tested on: eight species of bacteria typically found in swimming pool water; assay: Model swimming pool system: viable bacteria by agar plate counts (CLED agar); type: cell-based, Alcaligenes, Chryseobacterium and Sphingomonas; conditions: Table 1; upon exceeding turbidity threshold (or at test end); DBNPA 2 ppm daily with/without oxidizer; PHMB 6 ppm
Protocol: as §1

N#CC(Br)(Br)C(N)=O [DBNPA, 2,2-dibromo-3-nitrilopropionamide]
Number of Days of Clarity below 1.0 NTU [1]: 59 days
Fungal Counts at Clarity of 1.0 NTU or above [2]: 5 × 10^0 CFU/ml
Bacterial Counts at Clarity of 1.0 NTU or above [3]: 1.39 × 10^5 CFU/ml
